Experimental data reported in PMC8453848, “Effect of GLPG1205, a GPR84 Modulator, on CYP2C9, CYP2C19, and CYP1A2 Enzymes: In Vitro and Phase 1 Studies” (Clinical Pharmacology in Drug Development, 2021).
pIC50: −log10 of the molar value. ≈ marks a conversion by molar mass, not a printed value. Where two headings read alike, the source gives them in different places.

Assays:
[1] = cited from earlier work
[2] = target: CYP2C19 (Homo sapiens, UniProt P33261); assay: CYP2C19 inhibition, S-mephenytoin 4'-hydroxylase assay in human liver microsomes; assay type: in vitro ADME; set-up: from tissue; host or cells: in vivo, 14 healthy male subjects; details: for pIC50: estimated
Method: Inhibition of the biotransformation of CYP‐specific substrates by GLPG1205 was studied using human liver microsomes. Incubation was performed at 37°C with the following conditions: n = 3 for all assays; 0.1 M phosphate buffer (pH 7.4), the cofactor nicotinamide adenine dinucleotide phosphate (NADPH) incubated at 2 mM, the CYP‐specific substrate incubated at 1 nonsaturating concentration, and GLPG1205. Additional incubation was performed with (1) a 30‐minute preincubation step of GLPG1205 with microsomes before the addition of the cofactor NADPH and CYP substrate; and (2) a 30‐minute preincubation step of GLPG1205 with microsomes and the cofactor NADPH, before the addition of the CYP substrate. […] The CYP‐specific substrates were incubated per the above conditions at the following concentrations: tolbutamide, 200 μM, CYP2C9 substrate; S‐mephenytoin, 60 μM, CYP2C19 substrate; phenacetin, 40 μM, CYP1A2 substrate.
Further details of the assays used for each CYP substrate are reported in the Supplemental Methods. Metabolites of the CYP‐specific substrates (acetaminophen for CYP1A2, hydroxytolbutamide for CYP2C9, hydroxymephenytoin for CYP2C19) were quantified using LC‐MS/MS.
Enzymatic activity in the presence of GLPG1205 was expressed as a percentage of the control activity obtained with the vehicle only (ie, without GLPG1205 or reference inhibitor). Decreases in activity of less than 20% were not considered clinically relevant.
Protocol for CYP Inhibition of the biotransformation of CYP-specific substrates by GLPG1205 was studied using human liver microsomes.^7 Incubations were performed at 37°C with the following conditions: n = 3 for all assays; 0.1 M phosphate buffer pH 7.4; the cofactor β-nicotinamide adenine dinucleotide phosphate (NADPH) incubated at 2 mM; the CYP-specific substrate incubated at one non-saturating concentration; and GLPG1205. Additional incubations were performed with: 1) a 30-minute preincubation step of GLPG1205 with microsomes before addition of the cofactor NADPH and CYP substrate; and 2) a 30-minute preincubation step of GLPG1205 with microsomes and the cofactor NADPH, before addition of the CYP substrate.
The CYP-specific substrates were incubated at the following conditions: tolbutamide (200 µM; CYP2C9); S-mephenytoin (60 µM; CYP2C19); phenacetin (40 µM; CYP1A2).^8-10 Reference inhibitors (as detailed in the previous section) were incubated in parallel. […]
A two-fold dilution in D3-OH-mephenytoine at 1 µM in water with 0.1% formic acid was applied to the supernatants and then analysis was performed by LC-MS/MS with chromatographic separation. […] The quantification of the metabolite, hydroxymephenytoin, was performed in MRM mode using the 235.1 to 150.2 transition. […]

[3] = Test of solubility of GLPG1205 in culture medium for incubations; assay type: physicochemical; details: culture medium for incubation; final DMSO percentage 0.4%; read-out: limit of solubility in culture medium for incubations
Method: Solubility and cytotoxicity experiments were performed prior to incubation of GLPG1205 with cells.
Test of Solubility Prior to incubation of GLPG1205 with cells, a preliminary test of solubility was performed. Various stock solutions of GLPG1205 in dimethylsulfoxide (DMSO) were prepared. Different solutions were prepared by diluting the stock solutions in culture medium for incubation to obtain 100, 200, 250, 400 and 500 µM with different final percentages of solvent (maximum 0.5% DMSO, volume/volume [v/v]).

[4] = target: T1, CYP1A2 (Homo sapiens, UniProt P05177); assay: CYP1A2 inhibition, phenacetin O-deethylase assay in human liver microsomes; assay type: in vitro ADME; set-up: from tissue; host or cells: in vivo, 14 healthy male subjects; details: for pIC50: estimated
T1 sequence (P05177 1-516): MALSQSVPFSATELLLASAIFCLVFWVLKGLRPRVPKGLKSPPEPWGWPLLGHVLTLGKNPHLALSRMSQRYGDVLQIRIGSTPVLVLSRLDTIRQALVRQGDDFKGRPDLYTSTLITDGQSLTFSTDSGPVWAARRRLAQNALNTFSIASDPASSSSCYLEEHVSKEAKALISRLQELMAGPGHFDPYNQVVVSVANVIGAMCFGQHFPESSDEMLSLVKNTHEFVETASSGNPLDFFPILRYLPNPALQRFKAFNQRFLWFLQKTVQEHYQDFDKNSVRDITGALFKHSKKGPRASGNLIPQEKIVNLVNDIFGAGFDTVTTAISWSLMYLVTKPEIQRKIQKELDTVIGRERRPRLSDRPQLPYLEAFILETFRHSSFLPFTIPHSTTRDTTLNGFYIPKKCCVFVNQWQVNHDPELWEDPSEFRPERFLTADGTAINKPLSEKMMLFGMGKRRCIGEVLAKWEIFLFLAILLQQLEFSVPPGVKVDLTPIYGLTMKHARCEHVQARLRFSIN
Method: Inhibition of the biotransformation of CYP‐specific substrates by GLPG1205 was studied using human liver microsomes. Incubation was performed at 37°C with the following conditions: n = 3 for all assays; 0.1 M phosphate buffer (pH 7.4), the cofactor nicotinamide adenine dinucleotide phosphate (NADPH) incubated at 2 mM, the CYP‐specific substrate incubated at 1 nonsaturating concentration, and GLPG1205. Additional incubation was performed with (1) a 30‐minute preincubation step of GLPG1205 with microsomes before the addition of the cofactor NADPH and CYP substrate; and (2) a 30‐minute preincubation step of GLPG1205 with microsomes and the cofactor NADPH, before the addition of the CYP substrate. GLPG1205 was tested at 6 concentrations: 0.5, 1, 5, 10, 50, and 100 μM (0.19, 0.38, 1.89, 3.78, 18.9, and 37.8 μg/mL, respectively), for each condition. The CYP‐specific substrates were incubated per the above conditions at the following concentrations: tolbutamide, 200 μM, CYP2C9 substrate; S‐mephenytoin, 60 μM, CYP2C19 substrate; phenacetin, 40 μM, CYP1A2 substrate.
GLPG1205 was tested at 6 concentrations: 0.5, 1, 5, 10, 50 and 100 µM (0.19, 0.38, 1.89, 3.78, 18.9, 37.8 µg/mL, respectively).
The CYP-specific substrates were incubated at the following conditions: tolbutamide (200 µM; CYP2C9); S-mephenytoin (60 µM; CYP2C19); phenacetin (40 µM; CYP1A2).^8-10 Reference inhibitors (as detailed in the previous section) were incubated in parallel. For all assays, the following controls were incubated in parallel: 1) with CYP substrate, without microsomes, with NADPH, without inhibitor (to check for substrate stability); 2) with CYP substrate, with microsomes, without NADPH, without inhibitor (to check for non-NADPH-dependent metabolism of substrate); and 3) without substrate, with microsomes, with NADPH, with test compound or reference inhibitor (to check for potential analytical interference).
At the end of the incubation period, the reaction was stopped with the addition of 0.15 M phosphoric acid (300 µL); proteins were allowed to precipitate for a minimum of 1 hour at approximately 4°C. After centrifugation at 3200 g for 20 minutes at approximately + 4°C, supernatants were collected.

[5] = tested on: CYP3A4; set-up: method as in PMID 33960725, PMID 29780235; details: cortisol:6β‐hydroxycortisol ratio in urine; cited from earlier work
[6] = once‐daily oral dosing for 14 days

Chain of CYP2C19 (P33261 whole entry): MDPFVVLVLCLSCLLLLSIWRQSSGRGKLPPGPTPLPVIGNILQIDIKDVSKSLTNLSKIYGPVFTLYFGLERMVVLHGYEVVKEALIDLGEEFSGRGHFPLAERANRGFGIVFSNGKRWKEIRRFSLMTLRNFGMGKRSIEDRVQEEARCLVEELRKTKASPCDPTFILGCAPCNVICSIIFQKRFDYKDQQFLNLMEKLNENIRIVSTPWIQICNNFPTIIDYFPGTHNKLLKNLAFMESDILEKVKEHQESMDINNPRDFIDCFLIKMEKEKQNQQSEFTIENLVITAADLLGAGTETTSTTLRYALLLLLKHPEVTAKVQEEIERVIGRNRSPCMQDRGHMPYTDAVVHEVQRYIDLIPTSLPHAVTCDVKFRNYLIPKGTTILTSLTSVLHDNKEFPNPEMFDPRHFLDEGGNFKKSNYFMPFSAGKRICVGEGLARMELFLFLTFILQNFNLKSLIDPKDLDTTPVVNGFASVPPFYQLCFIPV

O=c1nc(OC[C@@H]2COCCO2)cc2n1CCc1cc(C#CC3CC3)ccc1-2 [GLPG1205, 9‐cyclopropylethynyl‐2‐[(S)‐1‐(1,4)dioxan‐2‐ylmethoxy]‐6,7‐dihydropyrimido[6,1‐a]isoquinolin‐4‐one]
median time to maximum plasma concentration (tmax) ([1]; healthy male subjects): 4 h
maximum tolerated dose ([1]; healthy subjects): 100 mg once a day
Cmax ([1]; multiple doses of GLPG1205 100 mg once a day, steady state): 3910 ng/mL
day by which steady‐state plasma concentration was reached [1, 6]: ≤ 10 days
elimination half‐life, average [1, 6]: 88.6 h
inhibition of CYP2C19 in words ([2]; GLPG1205 50‐100 μM): moderate and reversible
pIC50 ([2]; human liver microsomes, read-out: IC50 for inhibition of CYP2C19): ≤ 4.30
pIC50 ([2]; equivalent of ≥50 μM, read-out: IC50 for inhibition of CYP2C19, equivalent): ≤ 4.30
inhibition at 20 min ([2]; human, liver microsomes, pH 7.4, probe S-mephenytoin 60 µM, GLPG1205 50‐100 μM without preincubation, S‐mephenytoin 60 μM): 44.2 to 49.3%
solubility at 24 h [3]: 100 µM (≈ 37.8 µg/mL)
inhibition of CYP1A2 in words ([4]; GLPG1205 50‐100 μM): Weak
pIC50 ([4]; human liver microsomes, read-out: IC50 for inhibition of CYP1A2): ≤ 4.00
pIC50 ([4]; equivalent of ≥100 μM, read-out: IC50 for inhibition of CYP1A2, equivalent): ≤ 4.00
inhibition at 7 min, 100 µM ([4]; human, liver microsomes, pH 7.4, probe phenacetin 40 µM, GLPG1205 100 μM following a 30‐minute preincubation with NADPH): 52.9%
inhibition at 7 min ([4]; human, liver microsomes, pH 7.4, probe phenacetin 40 µM, GLPG1205 50‐100 μM, phenacetin 40 μM): 20.4 to 38%
CYP3A4 induction [5]: did not induce CYP3A4
